± gives the expanded uncertainty stated by the source.

Data on 2 compounds can be found in the NIST ThermoML archive (doi:10.1016/j.fluid.2016.02.018).

For this data set the following is noted: 293.2 K; 101.33 kPa; Liquid; Vibrating tube method.

For orientation: mass density means mass per unit of volume. Consider `CC[n+]1ccc(C)cc1.O=S(=O)([N-]S(=O)(=O)C(F)(F)F)C(F)(F)F`, for which the mass density is 1489.9 ± 0.7 kg/m3. For `CCn1cc[n+](C)c1.N#CN=C=[N-]` [1-ethyl-3-methylimidazolium dicyanamide] the value was 1104.9 ± 1.1 kg/m3.
